Laboratory results from patent US20240254083A1, “HETEROCYCLIC TRPML1 AGONISTS AND USES THEREOF” (Libra Therapeutics, Inc., priority 2021, published 2024).

How the values were obtained:
[1] = system: autophagy reporter Rosella stably expressed in HeK293 cell line; assay: Autophagy assay (Rosella-LC3 reporter, imaging); format: cell-based; conditions: Homo sapiens; HeK293 cells with Rosella reporter (LC3 tag), 18 hours incubation, reference Torin-1; read-out: Autophagy pEC50 (converted)
Experimental: • Tyrode's buffer with 2 mM Ca^2+ in-house solution (130 mM NaCl, 5 mM KCl, 2 mM CaCl2), 1 mM MgCl2, 5 mM NaHCO3, 20 mM HEPES in water at pH 7.4; sterile filtered) • DMSO (Sigma) • Bis-benzimide H 33342 trihydrochloride (Hoechst 33342; Sigma-Aldrich) • Reference molecule (agonist): Torin-1, (#4247, Tocris) stock 1.2 mM in DMSO, stored at −20° C. Reporter of Autophagy and Cell line
Reporter Rosella: a fluorescent-based chimera constitutes by two fluorescent proteins, Green and Red variants, acting as a bimodal indicator of pH. The green fluorescent variant of the constructs is pH sensitive (pKa=6.9) while the red variant is not pH sensitive and it is used as reference. The reporter is fused to sequence for autophagosome localization (LC3 tag).
The reporter Rosella have been stably expressed in HeK293 cell line and used as read-out.
Experiments have been performed in 384 MTP poly-lysine coated well format. Cells have been seeded in 384-w at a density of 6000 cells/well in 25 μl/well complete growth medium without antibiotics. Twenty-four hours later, cells have been treated with compounds and incubated for further 18 hours. Then the cells have been imaged and assayed for the response to various compounds using the reporter for autophagy expressed in the cells as readout.
The experiments were performed in a 384-well format according to the following procedure: • 24 h after seeding, cells were incubated with compounds at the desired concentration, and with the reference molecule (agonist) Torin-1 at a top concentration of 1 μM (max signal), for 18 hours at 37° C. and 5% CO2. The final percentage of DMSO was 0.3% in all the conditions. • Then the culture medium was carefully removed to avoid cells detachment and to discard red phenol into the medium and that can interfere with the measurements. • Staining of the nuclei was obtained by incubating the cells with 8 μM/well of Hoechst 3342 in standard Tyrode's buffer for 20 min at RT • Then the cells were carefully washed two times with standard Tyrode's buffer • Finally, the samples were acquired by recording three fluorescence emission channels (green, red and blue) at 20× magnification and with at least 3-4 fields of view per well in an Operetta CLS microscope (PerkinElmer). • Image analysis was performed by using Harmony software (PerkinElmer). The image analysis involved the following steps: flat-field illumination correction, nuclei segmentation, cell segmentations and identification of vesicles/granules within the cytosol compartments and representing the autophagy vesicles. Measurements of signal intensity ratio (Green to Red) and number of autophagy vesicles per cells were used to obtain information on the effects of compounds on the autophagy flux. • Data from image analysis measurements were finally loaded and analyzed for normalization and fitting procedures in Genedata Screener© software.

hTRPML1 = target: T1, hTRPML1 (Homo sapiens, UniProt Q9GZU1); assay: Cellular TRPML1 assay (FLIPR, GCaMP6f calcium read-out); format: cell-based; conditions: HEK T-REx/GCaMP6f/TRPML1 cells, FLIPR TETRA, kinetic response over 300 seconds; read-out: hTRPML1 FLIPR pEC50 (converted)
T1 construct: expressed in transfected cells
Experimental: Buffers and reagents • PBS (D-PBS without calcium and magnesium; EuroClone) • Trypsin (Trypsin 0.05%, EDTA 0.02% in PBS; EuroClone) • DMSO (Sigma) • Ca^2+ free Tyrode's buffer: in-house solution (130 mM NaCl, 5 mM KCl, 1 mM MgCl2, 5 mM NaHCO3, 20 mM HEPES in water at pH 7.4; sterile filtered). • Opti-MEM (Gibco) • Agonist: ML-SA1 (Sigma); stock: 60 mM in DMSO, stored at −20° C. • Blocker: ML-SI3 (in house synthesis); stock: 20 mM in DMSO, stored at −20° C.
Cell line • The final clone for the TRPML1 assay is HEK T-REx/GCaMP6f/TRPML1. • GCaMP6f is a genetically encoded calcium indicator that is stably expressed in this cell line and used as a fluorescent read-out.
Cells are seeded at 15000 cells/well either in 25 µl/well of growth medium or in 20 μl/well of Optimem+0.5% FBS without selection antibiotics. Twenty-four hours later, cells are assayed for the response to various compounds using the Ca^2+ sensitive GCaMP6f protein stably expressed in the cells as readout.
The experiment is performed in a 384-well format according to the following procedures for either Ca^2+ free or Optimem conditions: • Ca^2+ free condition (in absence of extracellular Ca^2+): • 24 h after seeding, pre-incubate the cells at room temperature for about 10′. • Then remove the culture medium and replace it with 20 μL of Ca^2+ free Tyrode's buffer. • Start the experiment at the FLIPR^TETRA by injecting 10 μL/w of 3× concentrated test compounds and controls in Ca^2+ free Tyrode's buffer. Monitor the kinetic response over a period of 300 seconds. • Final DMSO concentration: 0.5% • Optimem condition (in presence of extracellular Ca^2+): • 24 h after seeding, pre-incubate the cells at room temperature for about 10′. • Start the experiment at the FLIPR^TETRA by injecting 10 μL/w of 3× concentrated test compounds and controls in Ca^2+ free Tyrode's buffer. Monitor the kinetic response over a period of 300 seconds. • Final DMSO concentration: 0.5%
Data from FLIPR^TETRA measurements are analyzed with the Genedata Screener© software.

T1 sequence (Q9GZU1 whole entry): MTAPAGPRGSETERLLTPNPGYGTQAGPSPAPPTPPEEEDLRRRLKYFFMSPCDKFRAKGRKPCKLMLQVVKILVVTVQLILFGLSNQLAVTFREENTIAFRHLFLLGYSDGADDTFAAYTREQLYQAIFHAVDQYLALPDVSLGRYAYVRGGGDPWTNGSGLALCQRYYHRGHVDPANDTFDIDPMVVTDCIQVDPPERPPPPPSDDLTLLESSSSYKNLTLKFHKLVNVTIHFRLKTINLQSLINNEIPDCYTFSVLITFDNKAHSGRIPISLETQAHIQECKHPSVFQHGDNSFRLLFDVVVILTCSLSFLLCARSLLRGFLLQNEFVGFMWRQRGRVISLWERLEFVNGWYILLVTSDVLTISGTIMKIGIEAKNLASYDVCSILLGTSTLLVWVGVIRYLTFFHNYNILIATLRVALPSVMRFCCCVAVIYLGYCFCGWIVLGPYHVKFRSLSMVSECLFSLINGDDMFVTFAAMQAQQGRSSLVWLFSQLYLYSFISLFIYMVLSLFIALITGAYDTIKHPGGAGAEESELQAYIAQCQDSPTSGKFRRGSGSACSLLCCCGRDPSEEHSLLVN

EC50 (hTRPML1) [µM]	SMILES	EC50 [1] [µM]
1 to 3.16	CN(C)S(=O)(=O)c1ccc(S(=O)(=O)Nc2ccccc2N2CCCC(OCc3ccccc3)C2)cc1 (racemic) [Example 25, N^1-(2-(3-(benzyloxy)piperidin-1-yl)phenyl)-N^4,N^4-dimethylbenzene-1,4-disulfonamide]	1 to 3.16
1 to 3.16	CN(C)S(=O)(=O)c1ccc(S(=O)(=O)Nc2ccccc2N2CCCC(Oc3ccccc3)C2)cc1 (racemic) [Example 28, N^1,N^1-dimethyl-N^4-(2-(3-phenoxypiperidin-1-yl)phenyl)benzene-1,4-disulfonamide]	< 1
1 to 3.16	CN(C)S(=O)(=O)c1ccc(S(=O)(=O)Nc2ccccc2N2CCCC(COc3ccccc3)C2)cc1 (racemic) [Example 34, N^1,N^1-dimethyl-N^4-(2-(3-(phenoxymethyl)piperidin-1-yl)phenyl)benzene-1,4-disulfonamide]	1 to 3.16
1 to 3.16	CN(C)S(=O)(=O)c1ccc(C(=O)N(c2ccccc2N2CCC(Oc3ccccc3)CC2)C2CCCC2)cc1 [Example 1, N-cyclopentyl-4-(N,N-dimethylsulfamoyl)-N-(2-(4-phenoxypiperidin-1-yl)phenyl)benzamide]	< 1
1 to 3.16	CN(C)S(=O)(=O)c1ccc(C(=O)N(c2ccccc2N2CCC(Oc3ccccc3)CC2)C2CCC2)cc1 [Example 2, N-cyclobutyl-4-(N,N-dimethylsulfamoyl)-N-(2-(4-phenoxypiperidin-1-yl)phenyl)benzamide]	< 1
> 3.16	CCS(=O)(=O)c1ccc(S(=O)(=O)Nc2ccccc2N2CCC(Oc3ccccc3)CC2)cc1 [Example 6, 4-(ethylsulfonyl)-N-(2-(4-phenoxypiperidin-1-yl)phenyl)benzenesulfonamide]	> 3.16
< 1	CN(C)S(=O)(=O)c1ccc(S(=O)(=O)Nc2cccc(F)c2N2CCC(Oc3ccccn3)CC2)cc1 [Example 8, N^1-(3-fluoro-2-(4-(pyridin-2-yloxy)piperidin-1-yl)phenyl)-N^4,N^4-dimethylbenzene-1,4-disulfonamide]	< 1
1 to 3.16	O=S(=O)(Nc1cccc(F)c1N1CCC(Oc2ccccn2)CC1)c1ccc(C(F)(F)F)cc1 [Example 10, N-(3-fluoro-2-(4-(pyridin-2-yloxy)piperidin-1-yl)phenyl)-4-(trifluoromethyl)benzenesulfonamide]	1 to 3.16
1 to 3.16	CC(C)(C)OC(=O)N1CCN(c2ccccc2NS(=O)(=O)c2ccc(C(F)(F)F)cc2)CC1 [Example 17, tert-butyl 4-(2-((4-(trifluoromethyl)phenyl)sulfonamido)phenyl) piperazine-1-carboxylate]	< 1
1 to 3.16	Cc1ccc(S(=O)(=O)Nc2ccccc2N2CCN(C(=O)OC(C)(C)C)CC2)cc1F [Example 19, tert-butyl 4-(2-((3-fluoro-4-methylphenyl)sulfonamido)phenyl)piperazine-1-carboxylate]	> 3.16
1 to 3.16	Cc1ccc(S(=O)(=O)Nc2c(C)cccc2N2CCN(C(=O)OC(C)(C)C)CC2)cc1 [Example 22, tert-butyl 4-(3-methyl-2-((4-methylphenyl)sulfonamido)phenyl)piperazine-1-carboxylate]	> 3.16
1 to 3.16	CC(C)(C)OC(=O)N1CCN(c2ccccc2NS(=O)(=O)c2ccc(C3CC3)cc2)CC1 [Example 23, tert-butyl 4-(2-((4-cyclopropylphenyl)sulfonamido)phenyl) piperazine-1-carboxylate]	> 3.16
> 3.16	CN(C)S(=O)(=O)c1ccc(S(=O)(=O)Nc2ccccc2N2CCOC(C3CC3)C2)cc1 (stereo not shown) [Example 31, N^1-(2-(2-cyclopropylmorpholino)phenyl)-N^4, N^4-dimethylbenzene-1,4-disulfonamide]	> 3.16
> 3.16	CN(C)S(=O)(=O)c1ccc(S(=O)(=O)Nc2ccccc2N2CCOC(C3CCC3)C2)cc1 (stereo not shown) [Example 32, N^1-(2-(2-cyclobutylmorpholino)phenyl)-N^4,N^4-dimethylbenzene-1,4-disulfonamide]	1 to 3.16
